From article PMC4177008 (Organic & biomolecular chemistry, 2014) come the findings set out here.

“Also recorded” adds a separate entry of the source.

The test system of one data set is Influenza B/Shenzhen/747. Kind of data set: MDCK cell-based plaque reduction assay, influenza B/Shenzhen/747. To be noted: Influenza B virus.
For data set [1], the system named is Influenza A/PR/8/34 (H1N1). Put plainly: MDCK cell-based plaque reduction assay, influenza A/PR/8/34. To be noted: Influenza A virus, H1N1|PR/8, MDCK.
For data set [2], the system named is Influenza A3/Lufang 93-1(H3N2). Kind of data set: MDCK cell-based plaque reduction assay, influenza A3/Lufang 93-1. To be noted: Influenza A virus.
For data set [3], the system named is Influenza A1/Jingfang 86-1(H1N1). Kind of data set: MDCK cell-based plaque reduction assay, influenza A1/Jingfang 86-1. The conditions noted are these: Influenza A virus.
The test system of data set [4] is influenza A/udorn/72 (H3N2). It is filed as cell-based, influenza A virus.
The subject of data set [5] is influenza virus A/Udorn/72 strain (H3N2). Put plainly: MDCK cell-based plaque reduction assay, influenza A/Udorn/72. To be noted: for anti-influenza inhibitory activity (result in words) / inhibition to influenza virus at 100 μM / fold improvement of inhibitory activity over HTS hit P114F5: A/Udorn/72 (H3N2); for anti-influenza inhibitory activity (result in words): authors' description of the EC50 data; for inhibition to influenza virus at 100 μM: at a concentration of 100 μM; for EC50: influenza virus A/Udorn/72 strain (H3N2), 50% reduction of plaques in MDCK cells; for fold improvement of inhibitory activity over HTS hit P114F5: compared to P114F5.

The test system of data set [6] is human embryonic kidney cells (HEK293 cells). Kind of data set: MTT cytotoxicity assay in HEK293 cells. The data set is classed as cell-based. The conditions noted are these: HEK 293 cells, 24 h, mean ± SD of triplicates.
The subject of data set [7] is MDCK cells, HEK293 cells and HeLa cells. Kind of data set: MTT cytotoxicity, three cell lines. It is filed as cell-based.
Data set [8] has as its system Madin-Darby canine kidney (MDCK) cells. Kind of data set: MTT cytotoxicity assay in MDCK cells. To be noted: 24 h, mean ± SD of triplicates. The data set is classed as cell-based.
Data set [9] concerns human epithelial carcinoma cell line (HeLa cells). Put plainly: MTT cytotoxicity assay in HeLa cells. The conditions noted are these: 24 h, mean ± SD of triplicates. It is filed as cell-based.

`CCOC(=O)N1CCC(Sc2ccnc3ccccc23)CC1` [Compound P114F5, ethyl 4-(quinolin-4-ylthio)piperidine-1-carboxylate]: the EC50 turned out to be 10.9 µM with Influenza B/Shenzhen/747, 8.78 µM in data set [1], 11.7 µM in data set [2] and 9.05 µM in [3]. In addition, in data set [4], the “time-of-addition effect” value is “most effective as an inhibitor of influenza virus; also recorded: no significant anti-influenza activities were observed”.

With `CCOC(=O)N1CCC(Sc2ccc(OC)cc2)CC1` [Compound 1e, Ethyl 4-((4-methoxyphenyl)thio)piperidine-1-carboxylate], the “anti-influenza inhibitory activity (result in words)” value (“anti-influenza inhibitory activity” below) in data set [5] is reported as “moderate inhibitory activities”.

As for `CCOC(=O)N1CCC(Sc2ccncc2)CC1` [Compound 1c, Ethyl 4-(pyridin-4-ylthio)piperidine-1-carboxylate], the “inhibition to influenza virus at 100 μM” value in [5] is “did not show any inhibition”.

Take `CC(C)(C)OC(=O)N[C@@H](Cc1ccccc1)C(=O)N1CCC(Sc2ccnc3ccccc23)CC1` [Compound 12a, (S)-tert-Bbutyl (1-oxo-3-phenyl-1-(4-(quinolin-4-ylthio)piperidin-1-yl)propan-2-yl)carbamate]: the midpoint of the response in [5], the EC50, lay at 15.5 µM.

Consider `CCOC(=O)N1CCC(Sc2cccc3ccccc23)CC1` [Compound 1f, Ethyl 4-(naphthalen-1-ylthio)piperidine-1-carboxylate], for which the “anti-influenza inhibitory activity” value in data set [5] is “moderate inhibitory activities”.

On to `CCOC(=O)N1CCC(Nc2ccnc3ccccc23)CC1` [Compound 6b, Ethyl 4-(quinolin-4-ylamino)piperidine-1-carboxylate], for which the “anti-influenza inhibitory activity” value in data set [5] is on record as “moderate inhibitory activity”.

In [5], `CC(C)(C)OC(=O)N[C@@H](CC(N)=O)C(=O)N1CCC(Sc2ccnc3ccccc23)CC1` [Compound 12b, (S)-tert-Butyl (4-amino-1,4-dioxo-1-(4-(quinolin-4-ylthio)piperi-din-1-yl)butan-2-yl)carbamate] showed an EC50 of over 100 µM.

`CCOC(=O)N1CCC(Sc2cc(Cl)nc3ccccc23)CC1` [Compound 1b, Ethyl 4-((2-chloroquinolin-4-yl)thio)piperidine-1-carboxylate]: in [5], the “anti-influenza inhibitory activity” value was “moderate inhibitory activities”.

Turning to `CCOC(=O)N1CCC(Sc2cc(-c3ccccc3)nc3ccccc23)CC1` [Compound 1a, Ethyl 4-((2-phenylquinolin-4-yl)thio)piperidine-1-carboxylate], the “inhibition to influenza virus at 100 μM” value in data set [5] is given as “did not show any inhibition”.

As for `CCOC(=O)N1CCC(Sc2ccc(C)cc2)CC1` [Compound 1d, Ethyl 4-(p-tolylthio)piperidine-1-carboxylate], the “anti-influenza inhibitory activity” value in data set [5] is recorded as “moderate inhibitory activities”.

With `c1ccc2c(OC3CCNCC3)ccnc2c1` [Compound 11h, 4-(Piperidin-4-yloxy)quinolone], in data set [5], the “anti-influenza inhibitory activity” value is “significantly reduced the activity” and the EC50 was over 100 µM.

Turning to `CCOC(=O)N1CCC(Oc2ccnc3ccccc23)CC1` [Compound 6a, Ethyl 4-(quinolin-4-yloxy)piperidine-1-carboxylate], in [5], the “anti-influenza inhibitory activity” value is on record as “good inhibitory activity” and the “fold improvement of inhibitory activity over HTS hit P114F5” value amounted to 6 fold.

On to `CC(C)(C)OC(=O)N1CCC(Oc2ccnc3ccccc23)CC1` [Compound 11e, tert-Butyl 4-(quinolin-4-yloxy)piperidine-1-carboxylate], for which the results for the “MDL50 (μM) mean ± SD” value in data set [6], in data set [8] and in data set [9] were 8101.97 ± 473.16 µM, 10061.92 ± 235.86 µM and 8850.21 ± 406.99 µM, respectively. In [7] (any of the cell lines, up to a concentration of millimolar (mM) range, MTT), the “cytotoxicity (result in words)” value was “did not exhibit cytotoxicity; also recorded: did not observe cytotoxicity”. Moreover, the “selectivity index value (SI = MLD50/EC50)” value in data set [7] (based on cytotoxicity measured by MTT assays of three cell lines) is given as “over 160,000”. Moreover, the EC50 in the data set on Influenza B/Shenzhen/747 came to 0.05 µM; in data set [1], 0.07 µM; in data set [2], 0.06 µM; in data set [3], 0.1 µM. Also, in data set [5], the “fold improvement of inhibitory activity over HTS hit P114F5” value is 100 fold.

In turn, `c1ccc2c(OC3CCOCC3)ccnc2c1` [Compound 11j, 4-((Tetrahydro-2H-pyran-4-yl)oxy)quinolone] showed an EC50 in data set [5] of over 100 µM.
